We go through one compound from patent publication US6376540B1, “Furan nitrone compounds” (Centaur Pharmaceuticals, Inc., priority 1996, dated 2002).

In experiment [1] the test system is primary neuronal/astrocyte cultures. Description: Protection against Aβ(1-40)-induced neuronal cell loss. It is filed as cell-based, Sprague Dawley rat. The note with it: similar manner using Aβ(1-40) instead of Aβ(25-35). As for the experimental part: Patients with Alzheimer's disease are known to suffer a progressive loss of neuronal cells. See, for example, P. J. Whitehause et al., (1982) Science, 215:1237-1239. […] Sprague Dawley rat hippocampus of 18-day-gestation embryos was excised and then dissociated by trituration to prepare primary neuronal/astrocyte cultures. Cells (3×10^5) were plated on 35 mm poly-D-lysine-coated plates containing Eagle's minimum essential medium supplemented with 10% fetal bovine serum. After 3-5 hours, the original medium was removed and replaced with 1 mL of fresh medium. Cultures were maintained at 37° C. in a 5% CO2/95% air humidified incubator.
To the cells (7 DIV) was added 30 μM of Aβ(25-35) dissolved in dH2O (stored at −20° C.) and 100 μM of the test compound (i.e., a compound of Example 1, 3, 4, 5, 6, 7, 8, 12 or 13 above) in 1% methylcellulose. Controls were also conducted without the test compound. The percentage of morphologically viable neurons was determined counting the number of viable neurons after 96 hours treatment compared to the number of neurons before treatment in the same premarked culture regions (three regions/culture, n=6).
In experiments conducted in a similar manner using Aβ(1-40) instead of Aβ(25-35), the compound prepared in Example 1 above reduced Aβ(1-40)-induced neuronal cell loss by 46% compared to the controls.

Another experiment deals with Fas^1pr mutation mice. Description: Learning deficit in autoimmune mice, active avoidance T-maze. The format is in vivo. As for the experimental part:
Male MRL/MpJ controls and Fas^1pr mutation mice were either dosed orally with 1% methylcellulose (“MC”) or with 100 mg/kg of N-isopropyl-α-(2-sulfofuran-5-yl)nitrone sodium salt (prepared in Example 1 above)(“test compound”) in 1% methylcellulose for 9-10 weeks. Following dosing, animals of approximately 4 months of age were tested in an active avoidance T-maze. In the one day test, animals were analyzed for acquisition to avoid shock within the first five trials of the test.

The next experiment has as its target T1, synthetic Aβ(1-40) (Homo sapiens, UniProt P05067).
T1 construct: 3 μL of Aβ(1-40)(3 μg) prepared with dH2O
Description: Inhibition of Aβ(1-40) beta-pleated sheet formation (ThT fluorescence). The format is biochemical. As to conditions: 10 μM compound, ThT 3 μM, PBS pH 6.0, 12 hours; read-out: inhibition of Aβ(1-40) beta-pleated sheet formation compared to the controls. From the text:
The deposition of amyloid β-peptide (Aβ) is associated with the development of Alzheimer's disease. See, for example, G. G. Glenner et al. (1984) Biochem. Biophys. Res. Commun., 120:885-890; and R. E. Tanzi (1989) Ann. Med., 21:91-94. Accordingly, compounds which effectively disrupt the formation of Aβ(1-40) or Aβ(1-42) beta-pleated sheets are potentially useful for preventing and/or reversing such amyloid deposits. Thioflavin T (ThT) is known to rapidly associate with beta-pleated sheets, particularly the aggregated fibrils of synthetic Aβ(1-40). This association gives rise to a new excitation maximum at 440 nm and to enhanced emission at 490 nm.
The experiments were performed using a CytoFluor II fluorescence plate reader having the following parameters:
Into each well was aliquoted 95 μl of ThT (3 μM) prepared in PBS (pH 6.0), 2 μL of the compound to be tested (10 μM) prepared with 0.05% of methylcellulose in PBS (pH 6.0), and 3 μL of Aβ(1-40)(3 μg) prepared with dH2O (the compounds prepared in Examples 1, 3, 4, 5, 6, 7, 8, 9, 11 and 12 were tested). The fluorescence measurement began when the Aβ(1-40) was added and continued for a total of 12 hours. The percent inhibition of beta-pleated sheet formation was calculated from the relative fluorescence unit difference between aggregation in the presence and in the absence of the test compounds.

A further experiment deals with rats. Kind of experiment: N-nitro-L-arginine-induced spatial learning deficit. The format is in vivo, rat. The note with it: 10 mg/kg 30 min before each of nine doses of N-nitro-L-arginine (100 mg/kg). From the text: Treatment of rats with N-nitro-L-arginine, a nitric oxide synthase inhibitor, is known to cause a deficit in spatial learning. See, for example, G. A. Bohme et al., (1993) PNAS, 90:9191-9194. Rats treated with N-nitro-L-arginine wander aimlessly throughout their enclosure whereas untreated rats spend most of their time in the quadrant in which they are initially placed and stay away from the open area in the middle of the enclosure. This N-nitro-L-arginine-induced spatial learning deficit is used as a model for learning deficits caused by Alzheimer's disease and other dementias.
In this experiment, 10 mg/kg of N-isopropyl-α-(2-sulfofuran-5-yl)nitrone sodium salt (prepared in Example 1 above) or a control was administered 30 min before each of nine doses of N-nitro-L-arginine (100 mg/kg. iip.). The wanderings of the rats were then monitored. […] In contrast, rats treated with N-nitro-L-arginine and N-isopropyl-α-(2-sulfofuran-5-yl)nitrone sodium salt show a preference for the area of the enclosure into which they were first placed and rarely cross the center of the enclosure as illustrated in FIG. 3C. This behavior is essentially the same as rats treated with a saline control (i.e., without N-nitroL-arginine)(see FIG. 3A).

The subject of another experiment is female Lewis rats. Description: Prevention of weight loss in the EAE model. It is filed as in vivo, rat. As to conditions: 100 mg/kg po once a day, weighed daily. As for the experimental part:
Acclimated female Lewis rats, (Harlan; 200-250 g) were used in this experiment since this strain of rat is genetically highly susceptible to EAE. In the experiment, 100 mg/kg of N-isopropyl-α-(2-sulfofuran-5-yl)nitrone sodium salt (prepared in Example 1 above) or a vehicle alone (control) was administered po once a day from days 4 to 18. On day 1, the rats received an injection of 100 μg of MBP peptide, from guinea pig brain, plus 500 μg of H37RA Mycobacterium in 0.10 ml complete Freund's adjuvant divided equally between the two hind foot-pads.
To determine if the furan nitrones of formula I prevented such weight loss, the animals in the EAE model described in Example 27 above were weighed daily.

T1 sequence (P05067 672-711 limits assumed): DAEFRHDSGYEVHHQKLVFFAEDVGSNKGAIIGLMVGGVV

As for `CC(C)[N+]([O-])=Cc1ccc(S(=O)(=O)O)o1` [Example 1, N-Isopropyl-α-(2-sulfofuran-5-yl)nitrone], the “reduction of Aβ(1-40)-induced neuronal cell loss compared to the controls” value in experiment [1] is listed as 46%. The “protection in acquisition learning deficit compared to Fas mutated animals receiving only 1% methylcellulose” value in the experiment with Fas^1pr mutation mice (100 mg/kg orally for 9-10 weeks, two experiments combined (n=14-15)) is reported as 50%. In addition, the “Mean Acquisition Values (Maximum score of 5.0)” value in the experiment with Fas^1pr mutation mice (Fas^1pr mice, 100 mg/kg orally in 1% methylcellulose for 9-10 weeks, first five trials) is given as “Mean = 1.467”. Moreover, the inhibition at 10 µM at synthetic Aβ(1-40) fell in the range of 15 to 71%. In the experiment on rats, the “spatial learning deficit caused by N-nitro-L-arginine” value is listed as “prevents the spatial learning deficit”. Also, in the experiment with female Lewis rats, the weight change result was “normal or above normal weight gain”.
